{"source": "patent US6492427B2", "about": "“Methods for treating multiple sclerosis” (priority 1998, dated 2002)", "key": {"PROLs": {"tested_on": "PROLs", "assay": "Methylene blue counts of individual cell types: PROLs", "format": "cell-based, rat", "conditions": "BM-D9, 24 h", "experimental": "(§1) Methylene blue (3,7-bis (dimethylamino)-phenothiazin-5-ium chloride), a ribonucleic acid (RNA) binding agent commonly used as an alternative nucleic acid stain, can also be used as a biological staining agent to stain cells in order to observe their morphological features. At 24 h, cells were fixed in 2% paraformaldehyde for 15 min at room temperature. Briefly, cells were washed twice with PBS and 100 μl of 1% methylene blue (Mallinckrodt Chemical Co., MO, USA) solution containing 1% AgNO3 was added for 10 min to the wells containing coverslips. Subsequently, the coverslips were washed with two changes of distilled water and absolute ethanol, cleared with xylene and mounted on slides with permount.\n(§2) Cell counts were performed for 25 randomly chosen 100 power fields on each coverslip. Two randomly generated coordinates drawn from a uniform distribution of random numbers specified the center of each field. The random numbers were generated on a computer by using Microcal Origin 4.0 program. […] Three coverslips was counted for each treatment condition. In subsequent experiments, different cell types (for example, O-2A progenitors, PROLs, OLs and astrocytes) were morphologically identified on each field and were counted separately for experimental series-I and II. […]"}, "[1]": {"tested_on": "MBP, PLP, GC and CNPase-I", "assay": "Western blot of PROL and OL marker proteins", "format": "cell-based, rat", "conditions": "BM + 10^−9 M, 18 h"}, "OLs": {"tested_on": "OLs", "assay": "Methylene blue counts of individual cell types: OLs", "format": "cell-based, rat", "conditions": "BM-D9, 24 h", "experimental": "as §1, §2"}, "[2]": {"tested_on": "mitochondrial membrane potential (ΔψM) of oligodendroglial cells", "assay": "CMTMR estimation of mitochondrial membrane potential by confocal microscopy", "format": "cell-based, rat", "conditions": "BM + 10^−9 M, 18 h", "experimental": "The ΔψM was assessed by the addition of a lipophilic, potentiometric dye, chloromethyl-tetramethylrhodamine methyl ester (CMTMR, Mitotracker Orange™ Molecular Probes, Eugene, Oreg.). The CMTMR dye reacts with the thiol groups on proteins and peptides to form aldehyde fixable conjugates. Entry of the negatively charged mitochondrial matrix compartment is proportional to the difference in the membrane potential. Therefore, the CMTMR fluorescence labels the mitochondrial membrane potential generated due to the negativity difference between the mitochondrial matrix and the outside of the mitochondria. Upon cell fixation, CMTMR remains in the mitochondria and is not washed out unlike other mitochondrial potentiometric dyes like rhodamine123.\nOligodendrocytes at 16 DIV were placed in trophically deprived BM for 18 h or treated with BM-D9 or BM-Ds9. […] The cells were incubated in CMTMR at 37° C. for 15 min. The cells were then fixed with 4% cold paraformaldehyde on ice for 30 min and washed twice with 0.1M PBS. Consequently, the coverslips were mounted on glass slides with Aquamount (Gurr, England).\nIndividual mitochondria labeled with CMTMR were resolved by confocal microscopy. A Leica true confocal scanning (TCS) 4D microscope coupled to an argon-krypton laser (Omnichrome, USA) was used for cell imaging. A pinhole size of 20 with an excitation filter wavelength of 568 nm and an emission filter wavelength of 590 nm was used to image the CMTMR labeled mitochondria. Each field of the coverslip was imaged using an oil-immersion, 100 X, 1.3 N.A. objective at 512 by 512 by 8 bits per pixel resolution, background offset of −1 and line averaged 32 times in bi-directional line scan mode. Care was taken not to exceed the dynamic range of the gray value display. The confocal images obtained were saved on an optical drive in a tagged image file format (TIFF).\nFluorescence intensity of individual mitochondria was measured using the Metamorph™ program. Metamorph™ compiles measurements of objects in a 8-bit image ranging from gray values 0 (background) and 255. In order to obtain fluorescence intensity measures, a rectangular region tool of 2×2 pixels was used to measure two randomly selected areas within each mitochondrion. A total of ten mitochondria obtained equally from all the regions of each cell were measured within each image. About 20 images were analyzed for each treatment condition thereby giving a sum of about 400 mitochondrial fluorescence intensity measures. The raw values were then further graphed and analyzed with the Microcal Origin 4.1 program. Frequency count was performed on the data, which classified the data in ordered bins. A frequency distribution was obtained with lower bin value set at 0 and higher bin value set at 260."}, "[3]": {"conditions": "pH about 3-5 vs pH about 7; cited from earlier work"}, "CA1 hippocampal neurons": {"tested_on": "CA1 hippocampal neurons", "conditions": "cited from earlier work"}, "oligodendroglial cells": {"tested_on": "oligodendroglial cells", "assay": "Total counts of intact methylene blue stained cells", "format": "cell-based, rat", "conditions": "BM-D9 (10^−9 M), 24 h", "experimental": "Cells were trophically withdrawn by replacing the media with a serum free, chemically-defined base media (BM) lacking insulin and IGF-I (Bottenstein et al., 1988). The base media consisited of DMEM supplemented with penicillin (50 IU/ml); streptomycin (50 μg/ml); 1 mM sodium pyruvate; 50 μg/ml transferrin; 0.005 μg/ml sodium selenite; 16 μg/ml putrescine; 0.006 μg/ml progesterone and 0.1 mg/ml bovine serum albumin. All the cells were washed with BM twice before exposing them to individual treatment conditions. Control cells were washed and placed in BM supplemented with 2.5 ng/ml IGF-I and 5 μg/ml insulin to form the insulin media (IM).\nTo study the effects of trophic-like agents on the survival of oligodendroglial […].\nMethylene blue (3,7-bis (dimethylamino)-phenothiazin-5-ium chloride), a ribonucleic acid (RNA) binding agent commonly used as an alternative nucleic acid stain, can also be used as a biological staining agent to stain cells in order to observe their morphological features. […]\nCell counts were performed for 25 randomly chosen 100 power fields on each coverslip. […] Three coverslips was counted for each treatment condition. In subsequent experiments, different cell types (for example, O-2A progenitors, PROLs, OLs and astrocytes) were morphologically identified on each field and were counted separately for experimental series-I and II. […]"}}, "note": "“Also recorded” adds a separate entry of the source. Where two headings read alike, the source gives them in different places."}
{"smiles": "C#CCN(C)[C@H](C)Cc1ccccc1", "note": "[(−)-deprenyl, R-(−)-N,α-Dimethyl-N-2-propynyl phenethylamine]", "values": [{"measurement": "PROL cell numbers compared to those in BM", "setting": "PROLs; experimental series II", "value": 275, "unit": "%"}, {"measurement": "PROL cell numbers compared to those in BM", "setting": "PROLs; experimental series-I", "value": 739.2, "unit": "%"}, {"measurement": "band densities for MBP, CNP-ase I and PLP compared to IM", "setting": "[1]", "value": "exceed those for IM"}, {"measurement": "immunodensity of marker proteins (MBP, PLP, GC, CNPase-I) compared to BM", "setting": "[1]", "value": "marked increase in immunodensity compared to BM"}, {"measurement": "OL cell numbers compared to those in BM", "setting": "OLs; experimental series II", "value": 291, "unit": "%"}, {"measurement": "OL cell numbers compared to those in BM", "setting": "OLs; experimental series-I", "value": 565.0, "unit": "%"}, {"measurement": "mitochondrial CMTMR fluorescence distributions (ΔψM) in ASTs, PROLs and OLs", "setting": "[2]", "value": "not significantly different to those found for IM; also recorded: prevented the decrease in ΔψM"}, {"measurement": "stability depending on pH of the medium", "setting": "[3]", "value": "more stable at a pH in the range of about 3-5 than at a pH of about 7"}, {"measurement": "CA1 hippocampal neuronal survival", "setting": "CA1 hippocampal neurons; 0.25 mg/kg, days 3 or 7 (Lahtinen et al., 1997)", "value": "significant increase in survival at both time points"}, {"measurement": "CA1 hippocampal neuronal survival", "setting": "CA1 hippocampal neurons; 10 mg/kg daily from 1-2 hours after 5 minutes occlusion, day 4 (Ballabriga et al., 1997)", "value": "no increase in survival"}, {"measurement": "number of intact methylene blue stained cells, % of those in BM", "setting": "oligodendroglial cells; experimental series-I", "value": 576, "unit": "%"}, {"measurement": "number of intact methylene blue stained cells, % of those in BM", "setting": "oligodendroglial cells; experimental series-II", "value": 255, "unit": "%"}]}
